From patent publication USRE43712E1, “Methods for assaying for antidepressant therapy markers” (The Board of Trustees of the Uniersity of Illinois, priority 2000, dated 2012)
Where “and” joins values, the source holds several entries; their conditions need not be identical. Equal entries are not always repeated. Entries after “also recorded” stand apart in the source; their conditions may differ. Marks after values point to notes of the source that are not given here.

How the values were obtained:
Gsα [1] = test: Detergent extraction of Gsα from rat synaptic membrane after chronic antidepressant treatment; assay type: in vivo; settings: for GsαL in the Triton X-100 extract versus control / GsαL in the Triton X-114 extract versus control: rat synaptic membrane, 21 days treatment
Protocol: C6-2B cells (between passages 20 and 40) were grown in 175-cm^2 flasks in Dulbecco's modified Eagle medium, 4.5 g of glucose/L, 10% bovine serum, in a 10% CO2 atmosphere, at 37° C. for 3 days after splitting. […] Male Sprague-Dawley rats weighing 150-200 g were fed ad libitum and maintained in a 12-h light/dark cycle. […] 36:803-838, 1989]. […] Rat cerebral cortex membranes were prepared according to the method of Rasenick et al. [Nature, 294:560-562; 1981].
Membrane proteins were extracted sequentially from C6-2B or rat synaptic membranes as described [Yan et al., J. Neurochem., 66:1489-1495; 1996]. These membranes were stirred on ice in HEPES (15 mM, pH 7.4) containing 1% Triton X-100 for 60 min followed by centrifugation at 100,000 g for 60 min at 4° C. The supernatant was reserved (Triton X-100 extract), and the resulting pellet was resuspended in Tris (15 mM, pH 7.4) containing 1.4% Triton X-114 and 150 mM NaCl. The solution was stirred for 60 min at 4° C. and centrifuged for 30 min at 100,000 g in the cold. The supernatant was saved (Triton X-114 extract). These supernatants and remaining pellet (remainder) were subjected to sodium dodecyl sulfate (SDS)-polyacrylamide gel electophoresis (PAGE) using 10% gels. All of the extraction buffers contained 1 mM PMSF and 1 mM EGTA.
Rat cortex membrane, C6-2B cell membranes, or Triton extracts of each membrane preparation were subjected to SDS-PAGE followed by electrotransfer to polyvinylidene difluoride (PVDF) membrane. The PVDF membrane was incubated with a phosphate-buffered saline/Tween 20 Buffer (140 mM NaCl, […]. 0.1% Tween 20, pH 7.4) and 3% bovine serum albumin. The membrane was then incubated with polyclonal rabbit antisera against the various G protein subunits [RM (Gsα) or 116 (Gi1, Gi2, Gi3α)] at a 1:25,000 (RM) or 1:5,000 (116) dilution (see below for source of antibodies). […] Immunoreactivity was detected with an enhanced chemiluminescence (ECL) western blot detection system (Amersham) in accord with the manufacturer's instructions. The developed autoradiographs were analyzed by densitometry.
Rats were treated with antidepressant via intraperitoneal injection once daily for 21 days, control animals received an equal number and volume of injection of saline. Cerebral cortices from each group were removed. Rat synaptic membrane-enriched fractions were prepared (see Example 1). The ratios of the percentage of Gsα extracted by the two detergents in the treatment versus control groups were compared and are set forth in Table 3 as percentage of control (i.e., each Triton X-100 extract was compared with the untreated Triton X-100 extract, the same was comparison was undertaken for Triton X-114 extracts as well as the remainder). The values shown are means±standard error of the mean of 4-6 experiments.

Gsα [2] = test: Cellular localization of Gsα in C6-2B cells, immunofluorescence laser scanning confocal microscopy; assay type: cell-based; settings: for Cells displaying intense Gsα staining at the process tips (and processes): control 64%
Protocol: C6-2B cells (between passages 30 and 50) were plated onto coverslips and allowed to attach overnight in Dulbecco's modified Eagle's medium. 4.5 g/l glucose, 10% bovine serum, and 100 μg/ml penicillin and streptomycin at 37° C. in a humidified 10% CO2 atmosphere. […] Therefore, the latter treatment paradigm was used in these experiments because it was easier to maintain the cell cultures for 3 days. […] The culture media and drug were changed daily. […] After the treatment duration, the cells were incubated in drug-free media for 45 to 60 minutes before fixation.
After treatment, cells were washed once with phosphate-buffered saline (PBS, […] NaCl, 2.6 mM KCl, 5.4 mM NaαPO4 7H2O, pH 7.4) and fixed with ice-cold methanol for 10 minutes. Cells were then washed three times with PBS followed by 2 h of blocking in 5% normal goat serum/0.2% fish skin gelatin in PBS. Primary antibody was added for 1.5 h, Gsα/RM1 (PerkinElmer Life Sciences, Boston, Mass.) 1:50 and Goα (Santa Cruz Biotechnology, Santa Cruz, Calif.) 2 μg/ml, followed by three washes with PBS. Oregon Green-labeled secondary antibody (Molecular Probes, Eugene, Oreg.) was added at a concentration of 8 μg/ml for 1 h followed by three PBS washes. The coverslips were mounted onto slides with Vectashield (Vector Laboratories. Burlingame, Calif.) containing diamidino-2-phenylindole as a mounting medium. Images were acquired using a Zeiss LSM510 laser-scanning confocal microscope (Carl Zeiss Inc., Thornwood, N.Y.). A single 488-nm beam from an argon/krypton laser was used for excitation of the Oregon Green. Differential interference contrast images were also acquired. Five experiments were performed and coverslips were examined. Approximately 2100 cells from control and desipramine-treated coverslips were counted by two investigators blind to the experimental conditions over the course of the five experiments.
The cellular distribution of Gsα was quantified in confocal imaged C6-2B cells using NIH-Image software (http://rsbinfonihpov/nih-image) as describe previously [Southwell et al., Cell Tissue Res., 292:37-45, 1998; Jenkinson et al., Br. J. Pharmacol., 126:131-136, 1999]. Images of 9×1 μm optical, planar sections taken from four randomly selected control and four randomly selected desipramine-treated cells were captured and the middle five sections from each cell were quantified. Total cellular Gsα fluorescence was measured by counting the number of pixels with intensity above threshold (determined by minimum intensity above background in this case 50 pixels). The areas of intensity were numbered and divided visually into those localized to the cell body and those localized to the processes and process tips. The total from each region was divided by the total cell pixel intensity and expressed as a percentage of the total. This was done for each section of each cell and the sections were averaged per cell to give an average percentage total per cell.
In a separate investigation, seven sets of 300 cells each from control group and desipramine-treated cells from five experiments were counted to determine the primary localization (processes and process tips or cell body) of Gsα within these cells. The majority of the cells stained positively for Gsα throughout the entire cell, but there was usually an enhancement in one of these regions. […] The counts are expressed as the ratio of process and process tip localization/cell body localization.
Studies were conducted to determine whether a shift in cellular localization of Gsα occurred in C6-2B cells subjected to antidepressants.
Twenty-one hundred cells from each group (control versus desipramine-treated) over a series of five experiments were examined to quantify the extent of the antidepressant effect. […] Abnormal cells or those not displaying processes were not included in the cell count. Cells (300-450) were counted per experiment and the ratio of category A cells to category B cells for each group is shown in FIG. 8. […]

[3] = rat cerebral cortex synaptic membrane, 10 mg/kg i.p. once daily for 21 days, mean ± SEM of 4-6 experiments
[4] = 10 μM desipramine 3 days, individual cells D1-D4

Structure (SMILES)	GsαL in Triton X-100 extract, % of corresponding value in control group (Gsα [1]; [3])	GsαL in Triton X-114 extract, % of corresponding value in control group (Gsα [1]; [3])	GsαS in Remainder, % of corresponding value in control group (Gsα [1]; [3])	GsαS in Triton X-100 extract, % of corresponding value in control group (Gsα [1]; [3])	GsαS in Triton X-114 extract, % of corresponding value in control group (Gsα [1]; [3])	GsαL in the Triton X-100 extract versus control (Gsα [1])	GsαL in the Triton X-114 extract versus control (Gsα [1])	Decrease in Gsα localization to the processes and process tips, control versus treated cells (Gsα [2]; 10 μM desipramine 3 days)	Percentage of Gsα immunofluorescence distribution, Processes, Average (Gsα [2]; 10 μM desipramine 3 days, average of four cells, control 12.0 ± 5.7)	Percentage of Gsα immunofluorescence distribution, Processes, Average (Gsα [2]; 10 μM desipramine 3 days, average of four cells, control 12.0 ± 5.7, listed as desipramine)	Percentage of Gsα immunofluorescence distribution, Cell Body, Average (Gsα [2]; 10 μM desipramine 3 days, average of four cells, control 88.0 ± 5.7)	Percentage of Gsα immunofluorescence distribution, Cell Body, single cells (Gsα [2]; [4])	Percentage of Gsα immunofluorescence distribution, Processes, single cells (Gsα [2]; [4])	Gsα immunofluorescence in cell processes and process tips (Gsα [2]; 10 μM, 3 days)	Gsα in the cell body (Gsα [2]; 10 μM, 3 days)	Cells displaying intense Gsα staining at the process tips (and processes) (Gsα [2]; 10 μM, 3 days)	GsαL in Remainder, % of corresponding value in control group (Gsα [1]; [3])
CNCCCN1c2ccccc2CCc2ccccc21 [Desipramine, desipramine]	128.2 ± 9.5^a %	77.3 ± 8.8^a %	84.9 ± 25.7%	146.4 ± 9.6^b %	71.7 ± 6.8^a %	significant increase	concomitant decrease	three-fold decrease	4.1 ± 4.7%	4%	95.9 ± 4.7%	91.4% and 92.2% and 100.0% (2×)	8.6% and 7.8% and 0.0% (2×)	drastically reduced; also recorded: decrease in the cell processes and process tips	increase	32%	–
CNCCC(Oc1ccc(C(F)(F)F)cc1)c1ccccc1 (centres unmarked) [Fluoxetine, fluoxetine]	118.1 ± 3.4^a %	81.9 ± 4.5^a %	45.2 ± 8.4^a %	153.8 ± 39.9%	91.6 ± 6.3%	significant increase	concomitant decrease	–	–	–	–	–	–	loss of staining in the processes and process tips; also recorded: drastic reduction	–	45%	53.8 ± 6.9^a %
